Patent US8148117B2, “Microorganism and process for the preparation of L-methionine” (Evonik Degussa GmbH, priority 2005, dated 2012)
Where two headings read alike, the source gives them in different places.

Legend:
MetC [1] = biological target: MetC (Bordetella avium, UniProt Q07703); settings: read-out: MetC Km; B. avium MetC; Gentry-Weeks et al. 1993; cited from earlier work
MetC [2] = biological target: MetC (Salmonella typhimurium, UniProt P18949); settings: read-out: MetC Km; S. thyphimurium MetC; Dwivedi et al. 1982; cited from earlier work
MetC [3] = biological target: MetC (Escherichia coli, UniProt P06721); settings: Dwivedi et al. 1982, cited from earlier work
MetC [4] = biological target: T1, MetC (Corynebacterium glutamicum, UniProt Q93QC6); assay type: biochemical; settings: for Cleavage by MetC: MetC added to MetB assay products after MetB removal, HPLC and photometric SH-group assay
T1 construct: His-Tag (N); made in house; host or cells: Escherichia coli
T1 sequence (Q93QC6 1-368): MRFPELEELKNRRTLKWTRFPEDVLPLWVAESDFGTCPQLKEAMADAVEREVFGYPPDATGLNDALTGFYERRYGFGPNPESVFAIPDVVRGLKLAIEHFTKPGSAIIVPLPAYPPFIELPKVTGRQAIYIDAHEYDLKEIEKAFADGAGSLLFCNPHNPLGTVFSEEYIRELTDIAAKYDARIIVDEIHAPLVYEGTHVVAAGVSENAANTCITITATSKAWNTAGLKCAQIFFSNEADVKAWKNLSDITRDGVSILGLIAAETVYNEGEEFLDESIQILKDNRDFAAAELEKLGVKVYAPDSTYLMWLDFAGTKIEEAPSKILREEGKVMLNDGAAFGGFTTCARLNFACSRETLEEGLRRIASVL
Method: (§1) Overexpression and purification of enzymes. MetB and MetC of C. glutamicum were cloned in the vector pQE30 (Qiagen). Expression with this vector comprises the addition of a His-Tag to the N-terminus of the expressed protein. Escherichia coli was transformed with the plasmid and selected by ampicillin resistance (100 μg/mL). Transformed E. coli was cultivated (100 μg/mL ampicillin, 37° C., 230 rpm) on terrific broth (Losen et al., Biotechnol Prog 2004, 204, 1062-8) and induced at an optical density of 1 (600 nm) by addition of 1 mM isopropyl thiogalactoside (final concentration). The cells were harvested by centrifugation (4225 g, 15 min, 2° C.) after 16 h of induced growth, washed and resuspended in phosphate buffer (100 mM, 100 μM pyridoxal phosphate, 1 mg/mL DNAse 1, pH 7.4 at 4° C.) and extracted by sonication (5×15 sec, 20 micron). The crude extracts were separated from cell debris by centrifugation (30 min, 2° C., and 20000 g). […] After the protein was applied to the column, it was washed with 10 vol. of 0.02 M sodium phosphate buffer. Elution was carried out with a linear gradient with 0.02 M sodium phosphate buffer (pH 7.4) containing 0.5 M NaCl and 0.5 M imidazol. The fractions containing the protein were checked for purity with SDS-PAGE and then pooled together. Imidazole was separated from the proteins by ultrafiltration.
In vitro assays of MetB and MetC. Activity of MetB and MetC was followed photometrically (Helios α, Thermo Electronic, Dreieich, Germany). Enzyme activities were measured by increase or decrease of free SH-groups using Ellman's reagent (Extinction at 412 nm) (Ellman and Lysko, 1979). The assay mixtures contained 1.25 mM cysteine or homocysteine and 3 mM O-acetyl homoserine for MetB-assays and 1.25 mM cystathionine or about 1.25 mM homolanthionine for MetC-assays. Homolanthionine was not commercially available. The MetC-assay was therefore carried out using the products of the MetB-assay. MetB was removed by ultrafiltration. Thus, the homolanthionine concentration could not be adjusted in the assays. […]

MetB [5] = biological target: T2, MetB (Corynebacterium glutamicum, UniProt Q79VD9); assay: In vitro assay of MetB, Km from Lineweaver-Burk plots; assay type: biochemical; settings: C. glutamicum MetB, with O-acetyl homoserine, this study
T2 sequence (Q79VD9 1-386): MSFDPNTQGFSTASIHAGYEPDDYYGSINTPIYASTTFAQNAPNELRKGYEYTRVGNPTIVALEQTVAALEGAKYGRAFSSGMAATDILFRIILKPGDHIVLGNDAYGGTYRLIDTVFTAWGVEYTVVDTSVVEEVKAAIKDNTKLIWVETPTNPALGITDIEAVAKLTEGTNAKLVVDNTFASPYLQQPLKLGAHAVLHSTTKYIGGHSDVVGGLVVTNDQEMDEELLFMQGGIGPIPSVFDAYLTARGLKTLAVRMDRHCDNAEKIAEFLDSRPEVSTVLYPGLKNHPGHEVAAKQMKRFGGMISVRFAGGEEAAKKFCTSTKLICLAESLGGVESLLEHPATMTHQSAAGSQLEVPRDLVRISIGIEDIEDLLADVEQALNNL
Method: as §1, with “The fractions containing the protein were checked for purity with SDS-PAGE and then pooled together. Imidazole was separated from the proteins by ultrafiltration.” left out
In vitro assays of MetB and MetC. […] Enzyme activities were measured by increase or decrease of free SH-groups using Ellman's reagent (Extinction at 412 nm) (Ellman and Lysko, 1979). […]

MetB [6] = biological target: MetB (Escherichia coli, UniProt P00935); settings: E. coli MetB; Holbrook et al. 1990; cited from earlier work
MetB [7] = settings: read-out: MetB Km; Spinach MetB; Ravanel et al. 1995; cited from earlier work
[8] = substrate: N[C@@H](CCS)C(=O)O; assay: purified protein, by the assay type; settings: other: C. glutamicum MetB, with O-acetyl homoserine, this study; 37.0 °C

MetC (Escherichia coli, UniProt P06721), sequence (P06721 2-395): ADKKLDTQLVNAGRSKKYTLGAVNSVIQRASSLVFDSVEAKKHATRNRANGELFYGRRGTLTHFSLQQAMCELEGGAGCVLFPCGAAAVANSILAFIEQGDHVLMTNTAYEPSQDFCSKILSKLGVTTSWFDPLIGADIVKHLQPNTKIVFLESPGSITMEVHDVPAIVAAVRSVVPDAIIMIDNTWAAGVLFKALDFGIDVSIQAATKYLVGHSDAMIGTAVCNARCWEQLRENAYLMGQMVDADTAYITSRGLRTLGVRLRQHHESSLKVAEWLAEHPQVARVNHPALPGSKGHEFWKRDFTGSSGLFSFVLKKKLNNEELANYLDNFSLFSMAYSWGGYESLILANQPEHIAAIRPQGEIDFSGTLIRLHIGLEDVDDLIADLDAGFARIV
MetB (Escherichia coli, UniProt P00935), sequence (P00935 whole entry): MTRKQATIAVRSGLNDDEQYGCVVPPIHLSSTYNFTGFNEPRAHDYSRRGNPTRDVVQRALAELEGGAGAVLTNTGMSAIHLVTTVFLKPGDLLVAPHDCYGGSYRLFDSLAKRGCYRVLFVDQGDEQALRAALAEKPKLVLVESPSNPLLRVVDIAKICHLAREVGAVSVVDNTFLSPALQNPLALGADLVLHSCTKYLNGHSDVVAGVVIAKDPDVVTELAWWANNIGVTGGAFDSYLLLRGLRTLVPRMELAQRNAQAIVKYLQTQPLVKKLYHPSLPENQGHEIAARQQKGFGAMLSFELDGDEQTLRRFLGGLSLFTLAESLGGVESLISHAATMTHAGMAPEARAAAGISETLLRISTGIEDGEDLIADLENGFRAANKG
MetC (Salmonella typhimurium, UniProt P18949), sequence (P18949 whole entry): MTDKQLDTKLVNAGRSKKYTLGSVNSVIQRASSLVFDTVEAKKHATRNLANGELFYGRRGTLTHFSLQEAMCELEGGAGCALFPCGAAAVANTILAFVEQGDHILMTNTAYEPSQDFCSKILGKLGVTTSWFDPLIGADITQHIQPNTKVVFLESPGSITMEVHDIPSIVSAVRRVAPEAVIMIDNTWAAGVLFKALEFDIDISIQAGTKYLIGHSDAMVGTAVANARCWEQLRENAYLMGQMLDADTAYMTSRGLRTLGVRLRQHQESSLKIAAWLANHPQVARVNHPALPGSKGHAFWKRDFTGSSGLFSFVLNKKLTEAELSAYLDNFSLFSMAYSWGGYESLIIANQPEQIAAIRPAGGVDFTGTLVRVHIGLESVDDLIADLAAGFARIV
MetC (Bordetella avium, UniProt Q07703), sequence (Q07703 whole entry): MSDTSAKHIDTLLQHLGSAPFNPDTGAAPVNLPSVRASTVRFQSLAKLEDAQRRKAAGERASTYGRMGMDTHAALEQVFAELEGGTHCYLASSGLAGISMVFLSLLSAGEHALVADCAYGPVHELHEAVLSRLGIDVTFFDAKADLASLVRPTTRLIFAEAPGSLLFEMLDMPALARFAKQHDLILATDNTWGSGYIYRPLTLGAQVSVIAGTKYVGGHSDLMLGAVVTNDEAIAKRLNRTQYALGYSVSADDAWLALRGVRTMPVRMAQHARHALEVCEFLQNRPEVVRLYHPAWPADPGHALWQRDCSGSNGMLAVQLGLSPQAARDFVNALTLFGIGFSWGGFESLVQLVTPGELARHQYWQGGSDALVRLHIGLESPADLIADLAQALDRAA

N[C@@H](CCSC[C@H](N)C(=O)O)C(=O)O [L-cystathionine]
Km (MetC [1]): 70 µM
Km (MetC [2]): 220 µM
Km (MetC [3]; E. coli MetC): 40 µM
Km (MetC [4]; C. glutamicum MetC, this study): 107 µM
Cleavage by MetC (MetC [4]): complete cleavage

N[C@@H](CS)C(=O)O [L-cysteine]
Km (MetB [5]): 258 µM
Km (MetB [6]): 50 µM
Km (MetB [7]): 180 µM

N[C@@H](CCSCC[C@H](N)C(=O)O)C(=O)O [L-homolanthionine, S-[(3S)-3-amino-3-carboxypropyl]-L-homocysteine]
Km (MetC [3]; E. coli MetC): 4540 µM
Km (MetC [3]; E. coli cystathionase): 4500 µM
Cleavage by MetC (MetC [4]): only poorly cleaved

B1: MetB (Corynebacterium glutamicum ATCC 13032) (protein)
chain: MSFDPNTQGFSTASIHAGYEPDDYYGSINTPIYASTTFAQNAPNELRKGYEYTRVGNPTIVALEQTVAALEGAKYGRAFSSGMAATDILFRIILKPGDHIVLGNDAYGGTYRLIDTVFTAWGVEYTVVDTSVVEEVKAAIKDNTKLIWVETPTNPALGITDIEAVAKLTEGTNAKLVVDNTFASPYLQQPLKLGAHAVLHSTTKYIGGHSDVVGGLVVTNDQEMDEELLFMQGGIGPIPSVFDAYLTARGLKTLAVRMDRHCDNAEKIAEFLDSRPEVSTVLYPGLKNHPGHEVAAKQMKRFGGMISVRFAGGEEAAKKFCTSTKLICLAESLGGVESLLEHPATMTHQSAAGSQLEVPRDLVRISIGIEDIEDLLADVEQALNNL
Km [8]: 541 µM
